# Laboratory results from article PMC5371824, “Phosphatidylinositol (4,5)-bisphosphate dynamically regulates the K2P background K^+ channel TASK-2” (Scientific Reports, 2017).
# Substitutions are numbered along the chain they refer to. Entries after “also recorded” stand apart in the source; their conditions may differ.
# What was measured:
# TASK-2 [1] = molecular target: T1, TASK-2 (Mus musculus, UniProt F6V9U5); assay: Excised inside-out patch recording from HEK-293 cells over-expressing TASK-2; format: biochemical; conditions: for Effect of readmitted ATP relative to the maximal effect elicited by the PIP: 1 mM ATP added after PIP, inside-out patches, Fig. S3; for Stimulating effect on TASK-2-mediated currents after run-down: diC8 PIP added to inside-out excised patches; for Stimulating effect on TASK-2-mediated currents after run-down / Maximal fold effect on TASK-2 current (normalised to current in absence of PIP) / EC50 / Hill coefficient nH of dose response curve: absence of ATP; for Maximal fold effect on TASK-2 current (normalised to current in absence of PIP) / EC50 / Hill coefficient nH of dose response curve: diC8 PIP; for Maximal fold effect on TASK-2 current (normalised to current in absence of PIP) / EC50: -60 mV, from fits, means ± SEM; for EC50: read-out: K0.5 (EC50) for activation of TASK-2 current
# T1 construct: expressed in transfected cells; host or cells: HEK-293
# T1 sequence (F6V9U5 1-502): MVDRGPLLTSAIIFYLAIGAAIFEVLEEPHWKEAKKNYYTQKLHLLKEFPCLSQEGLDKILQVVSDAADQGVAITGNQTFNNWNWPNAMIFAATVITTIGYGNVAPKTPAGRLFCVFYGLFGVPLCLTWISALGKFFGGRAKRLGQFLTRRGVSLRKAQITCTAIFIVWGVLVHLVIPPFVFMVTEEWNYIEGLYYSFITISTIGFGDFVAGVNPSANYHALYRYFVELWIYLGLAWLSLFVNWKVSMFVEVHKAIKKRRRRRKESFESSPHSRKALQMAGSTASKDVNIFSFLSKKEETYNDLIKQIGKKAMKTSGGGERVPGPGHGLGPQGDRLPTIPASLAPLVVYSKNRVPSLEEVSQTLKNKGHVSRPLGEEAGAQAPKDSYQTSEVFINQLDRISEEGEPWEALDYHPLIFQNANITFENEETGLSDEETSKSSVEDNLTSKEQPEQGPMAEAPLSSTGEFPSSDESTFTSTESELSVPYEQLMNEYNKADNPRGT
# Experimental: Recordings in the inside-out isolated patch configuration were performed in the gap-free mode at −60 mV. The inside aspect of the patch was bathed with a solution containing in mM: 10 KCl, 10 Glucose, 1 MgCl2, 10 EGTA, 1 Na3ATP, 0.1 GTP, 6.8 g/100 ml Sucrose, 10 Hepes/Tris, pH 7.4. The pipette contained in mM: 140 KCl, 10 Glucose, 6.8 g/100 ml Sucrose, 10 Hepes/Tris pH 7.4. For isolated patches, borosilicate capillaries (Harvard Apparatus GC150F-10 1.5 ODx0.86 ID) were fire polished to 4–5 MΩ and covered in beeswax. Acquisition was at 10 kHz with filter at 3 kHz (4-pole Bessel) and analysis was done with Clampfit 9.0 (Axon Instruments, Foster City, CA, USA). Traces shown are prints from crude Clampfit screen shots and quantification was done using the average currents were calculated at intervals using Clampfit after baseline adjustment.
# TASK-2-K297C = molecular target: T2, TASK-2-K297C (Mus musculus, UniProt F6V9U5, K297C); assay: Excised inside-out patch recording, TASK-2-K297C mutant; format: biochemical; conditions: 2 mM reducing agent, inside-out patch
# T2 construct: expressed in transfected cells; host or cells: HEK-293
# T2 sequence (F6V9U5 1-502 K297C): T1 sequence (F6V9U5 1-502) with K297C
# Experimental: Figure 6 Scanning of potential sites of interaction of TASK-2 with PI(4,5)P2 by cysteine mutagenesis of intracellular basic residues. (A) Schematic representation of TASK-2 topology showing the sequences of segments of the protein predicted to be intracellular or intracellular-facing. Basic residues are highlighted in red. (B) Recording from an excised inside-out patch of membrane taken from a HEK-293 cell over-expressing TASK-2. The patch was held at −60 mV in the presence of 1 mM ATP. At the intervals indicated by the boxes the intracellular aspect of the membrane was exposed to 300 μM Neomycin and then to 100 μM TPeA. At the end of the TPeA period the patch was additionally exposed to 1 mM MTSET as shown by the black box. (C and D) experiments as in (B), but with inside-out membrane patches obtained from cells expressing the mutants TASK-2-H327C and TASK-2-K297C respectively. In D the reducing agent DTT was also added at 2 mM. (E) Summary of experiments comparing the current before and after treatment with MTSET.
# Mus musculus TASK-2 (GenBank accession No. AF319542) plasmid was that obtained from mouse kidney. The cDNAs was subcloned into the pCR3.1 vector. Mutations were made by site-directed mutagenesis into the pCR3.1 vector as previously described[69] and confirmed by sequencing. HEK-293 cells were cultured in Dulbecco’s modified Eagle’s medium (DMEM) and F12 Ham’s medium at a 1:1 ratio and supplemented with 10% fetal calf serum at 37 °C in 5% CO2. For electrophysiological experiments, transient transfections were performed by electroporation, using CD8 cotransfection to identify effectively transfected cells. […] Experiments were performed 4–8 h after electroporation. […]
# Recordings in the inside-out isolated patch configuration were performed in the gap-free mode at −60 mV. […] Traces shown are prints from crude Clampfit screen shots and quantification was done using the average currents were calculated at intervals using Clampfit after baseline adjustment.
# TASK-2 [2] = molecular target: T1, TASK-2; assay: Whole-cell patch-clamp of HEK-293 cells expressing TASK-2; format: cell-based
# Experimental: Mus musculus TASK-2 (GenBank accession No. AF319542) plasmid was that obtained from mouse kidney. The cDNAs was subcloned into the pCR3.1 vector. Mutations were made by site-directed mutagenesis into the pCR3.1 vector as previously described[69] and confirmed by sequencing. HEK-293 cells were cultured in Dulbecco’s modified Eagle’s medium (DMEM) and F12 Ham’s medium at a 1:1 ratio and supplemented with 10% fetal calf serum at 37 °C in 5% CO2. For electrophysiological experiments, transient transfections were performed by electroporation, using CD8 cotransfection to identify effectively transfected cells. […] Experiments were performed 4–8 h after electroporation. In experiments with the voltage-sensitive phosphatase TASK-2 or its mutants were co-electroporated with a pCR3.1-DrVSP-IRES-CD8 vector.
# Transiently transfected HEK-293 cells in 35 mm Petri dishes were transferred to the stage of an inverted microscope for study. There they were continuously superfused with a bathing solution containing (in mM): 67.5 Na2SO4, 4 KCl, 1 K gluconate, 2 CaCl2, 1 MgCl2, 105 sucrose, and 10 Hepes/Tris (pH 7.5) (standard solution). A high K^+ solution was obtained by equimolar replacement of Na^+ by K^+. The pipette solution contained (mM) 8 KCl, 132 potassium gluconate, 1 MgCl2, 10 EGTA, 1 Na3ATP, 0.1 GTP, 10 HEPES/Tris, pH 7.4. Standard whole-cell, patch-clamp recordings were performed as described elsewhere. All our whole-cell experiments keep both intra- and extracellular chloride at 10 mM and although currents were measured at several potentials, data mostly reported are those obtained at 0 mV. Potentials were corrected for liquid junction shifts. Acquisition and analysis was done with Clampfit 9.0 (Axon Instruments, Foster City, CA, USA). Further data analysis was done using the curve fitting features of SigmaPlot v. 12 (Systat Software Inc., San Jose, CA, USA).
# TASK-3 = assay: Whole-cell current in TASK-3-expressing cells; format: cell-based; conditions: 100 nM 1,2-dioctanoyl-sn-glycerol, pulses to 0 mV from -75 mV
# Experimental: (§1) Figure 3 Gq protein coupled receptor inhibition of TASK-2 and minor effect of diacylglycerol. (A) Effect of activation of the angiotensin II receptor AT1 on TASK-2-mediated currents. HEK-293 cells were co-transfected with AT1 and TASK-2, or the TASK-2-K257A-K258A mutant. Current was monitored by brief pulses to 0 mV from a holding potential of −75 mV. Angiotensin II at a concentration of 1 μM was added during the indicated time. Results are means ± SEM of 6 experiments for TASK-2 and 4 experiments for TASK-2-K257A-K258A. (B) Effect of a diacylglycerol analogue assayed on TASK-2- and TASK-3-expressing cells. Current was monitored by brief pulses to 0 mV from a holding potential of −75 mV. The box labelled DAG indicates the addition of diacylglycerol short-chain analogue 1,2-dioctanoyl-sn-glycerol at 100 nM. Results are means ± SEM of 5 experiments for TASK-2 and 8 experiments for TASK-3.
# (§2) Transiently transfected HEK-293 cells in 35 mm Petri dishes were transferred to the stage of an inverted microscope for study. […] All our whole-cell experiments keep both intra- and extracellular chloride at 10 mM and although currents were measured at several potentials, data mostly reported are those obtained at 0 mV. […]
# TASK-2-K257A-K258A = assay: Whole-cell current in HEK-293 cells co-transfected with AT1 and TASK-2-K257A-K258A; format: cell-based, Mus musculus; conditions: 1 μM, pulses to 0 mV from -75 mV, Gβγ-insensitive mutant
# Experimental: as §1
# Mus musculus TASK-2 (GenBank accession No. AF319542) plasmid was that obtained from mouse kidney. The cDNAs was subcloned into the pCR3.1 vector. […]
# as §2
# [3] = test system: TASK-2 expressed with angiotensin II AT1 receptors; assay: Whole-cell current in HEK-293 cells co-transfected with AT1 and TASK-2; format: cell-based, Mus musculus; conditions: 1 μM, pulses to 0 mV from -75 mV
# Experimental: Transiently transfected HEK-293 cells in 35 mm Petri dishes were transferred to the stage of an inverted microscope for study. There they were continuously superfused with a bathing solution containing (in mM): 67.5 Na2SO4, 4 KCl, 1 K gluconate, 2 CaCl2, 1 MgCl2, 105 sucrose, and 10 Hepes/Tris (pH 7.5) (standard solution). […] All our whole-cell experiments keep both intra- and extracellular chloride at 10 mM and although currents were measured at several potentials, data mostly reported are those obtained at 0 mV. […]
compound,measurement,setting,value
"O[C@@H](CS)[C@@H](O)CS (racemic) [DTT, dithiothreitol]",Reversal of MTSET inhibition of WT TASK-2,"TASK-2 [1]; 2 mM reducing agent, inside-out patch, Fig. S4",reversibility of the effect
same,Reversal of the MTSET effect on TASK-2-K297C,TASK-2-K297C,"reversed, at least partially"
"Nc1ncnc2c1ncn2[C@@H]1O[C@H](CO[P@](=O)(O)O[P@](=O)(O)O[P@@](=O)(O)S)[C@@H](O)[C@H]1O [ATP-γ-S, adenosine-5′-(γ-thio)-triphosphate]",Ability to support TASK-2-mediated current in place of ATP,"TASK-2 [2]; whole-cell, pipette solution with non-hydrolysable analogue, 0 mV",unable to support the TASK-2-mediated current
"CCCCCCCC(=O)OC[C@H](CO)OC(=O)CCCCCCC [DAG, 1,2-dioctanoyl-sn-glycerol]",Effect on TASK-2 current,"TASK-2 [2]; 100 nM 1,2-dioctanoyl-sn-glycerol, pulses to 0 mV from -75 mV",only a minor effect
same,Effect on TASK-3 current,TASK-3,strong inhibition
"CCCCCCCC(=O)OC[C@H](COP(=O)(O)O[C@H]1[C@H](O)[C@@H](O)[C@H](OP(=O)(O)O)[C@@H](OP(=O)(O)O)[C@H]1O)OC(=O)CCCCCCC [PI(3,4)P2, phosphatidylinositol 3,4-bisphosphate diC8]",Effect of readmitted ATP relative to the maximal effect elicited by the PIP,TASK-2 [1],1.4 fold
same,Stimulating effect on TASK-2-mediated currents after run-down,TASK-2 [1],"Robust, but intermediate effects"
same,Maximal fold effect on TASK-2 current (normalised to current in absence of PIP),TASK-2 [1]; inside-out patch,4.3 ± 0.4 fold
same,EC50,TASK-2 [1]; inside-out patch,48.4 ± 4.6 µM
same,Hill coefficient nH of dose response curve,TASK-2 [1]; inside-out patch,2
"CCCCCCCC(=O)OC[C@H](COP(=O)(O)O[C@H]1[C@H](O)[C@@H](OP(=O)(O)O)[C@H](OP(=O)(O)O)[C@@H](OP(=O)(O)O)[C@H]1O)OC(=O)CCCCCCC [PI(3,4,5)P3, phosphatidylinositol 3,4,5-trisphosphate diC8]",Stimulating effect on TASK-2-mediated currents after run-down,TASK-2 [1],Largest effect; also recorded: most potent effect
same,Maximal fold effect on TASK-2 current (normalised to current in absence of PIP),TASK-2 [1]; inside-out patch,11.6 ± 1.6 fold
same,EC50,TASK-2 [1]; inside-out patch,29.8 ± 10.2 µM
"CCCCCCCC(=O)OC[C@H](COP(=O)(O)O[C@H]1[C@H](O)[C@@H](O)[C@H](OP(=O)(O)O)[C@@H](O)[C@H]1O)OC(=O)CCCCCCC [PI(4)P, phosphatidylinositol 4-monophosphate diC8]",Effect of readmitted ATP relative to the maximal effect elicited by the PIP,TASK-2 [1],5.6 fold
same,Stimulating effect on TASK-2-mediated currents after run-down,TASK-2 [1],quite small; also recorded: rather weak
same,Maximal fold effect on TASK-2 current (normalised to current in absence of PIP),TASK-2 [1]; inside-out patch,1.4 ± 0.4 fold
same,EC50,TASK-2 [1]; inside-out patch,50.6 ± 1.3 µM
same,Hill coefficient nH of dose response curve,TASK-2 [1]; inside-out patch,2
"CCCCC[N+](CCCCC)(CCCCC)CCCCC [TPeA, tetrapentyl ammonium]",IC50,TASK-2 [1],~2 µM
"angiotensin II (DRVYIHPF; Angiotensin-2; UniProt P01019 25-32, looked up) [agonist of the Gq-coupled angiotensin II AT1 receptor]","Effect on TASK-2-K257A-K258A current via AT1, compared with TASK-2",TASK-2-K257A-K258A,not significantly different
same,Effect on TASK-2-mediated current via AT1 receptor,[3],markedly inhibited
poly-lysine,Inhibition of TASK-2 activity by polycation PI scavengers,TASK-2 [1]; in the presence of intracellular ATP,inhibit TASK-2 activity
